The values below come from patent US11331369B2, “Endoparasitic depsipeptides” (Zoetis Services LLC, priority 2017, dated 2022).

For the assay, the system named is microfilariae of Dirofilaria immitis. Kind of assay: Dirofilaria immitis, Microfilaria (DiMF) In vitro Assay. In kind it is cell-based. As to conditions: 72 h, read-out: DiMF Minimum Effective Dose (MED), approximately 72 hours incubation, microfilariae assessed for survival or paralysis.

The structures appear in SMILES notation.

As to `CC(C)C[C@H]1C(=O)O[C@H](Cc2ccc(Cn3cc(C(F)(F)F)cn3)cc2)C(=O)N(C)[C@@H](CC(C)C)C(=O)O[C@H](C)C(=O)N(C)[C@@H](CC(C)C)C(=O)O[C@H](Cc2ccc(Cn3cc(C(F)(F)F)cn3)cc2)C(=O)N(C)[C@@H](CC(C)C)C(=O)O[C@H](C)C(=O)N1C` [Example 1b-34, (3S,6R,9S,12R,15S,18R,21S,24R)-3,9,15,21-tetraisobutyl-4,6,10,16,18,22-hexamethyl-12,24-bis(4-((4-(trifluoromethyl)-1H-pyrazol-1-yl)methyl)benzyl)-1,7,13,19-tetraoxa-4,10,16,22-tetraazacyclotetracosan-2,5,8,11,14,17,20,23-octaone], the minimal effective concentration lay within 0.01 to 0.1 µM.
`CC(=O)c1cnn(Cc2ccc(C[C@H]3OC(=O)[C@H](CC(C)C)N(C)C(=O)[C@@H](C)OC(=O)[C@H](CC(C)C)N(C)C(=O)[C@@H](Cc4ccc(Cn5cc(C(C)=O)cn5)cc4)OC(=O)[C@H](CC(C)C)N(C)C(=O)[C@@H](C)OC(=O)[C@H](CC(C)C)N(C)C3=O)cc2)c1` [Example 1b-38, (3S,6R,9S,12R,15S,18R,21S,24R)-6,18-bis(4-((4-acetyl-1H-pyrazol-1-yl)methyl)benzyl)-3,9,15,21-tetraisobutyl-4,10,12,16,22,24-hexamethyl-1,7,13,19-tetraoxa-4,10,16,22-tetraazacyclotetracosan-2,5,8,11,14,17,20,23-octaone]: the minimal effective concentration was in the range of 0.01 to 0.1 µM.
As to `CCOC(=O)c1cnn(Cc2ccc(C[C@H]3OC(=O)[C@H](CC(C)C)N(C)C(=O)[C@@H](C)OC(=O)[C@H](CC(C)C)N(C)C(=O)[C@@H](Cc4ccc(Cn5cc(C(=O)OCC)cn5)cc4)OC(=O)[C@H](CC(C)C)N(C)C(=O)[C@@H](C)OC(=O)[C@H](CC(C)C)N(C)C3=O)cc2)c1` [Example 1b-39, diethyl 1,1′-(((((2R,5S,8R,11S,14R,17S,20R,23S)-5,11,17,23-tetraisobutyl-4,8,10,16,20,22-hexamethyl-3,6,9,12,15,18,21,24-octaoxo-1,7,13,19-tetraoxa-4,10,16,22-tetraazacyclotetracosane-2,14-diyl)bis(methylene))bis(4,1-phenylene))bis(methylene))bis(1H-pyrazole-4-carboxylate)], the minimal effective concentration is 0.01 to 0.1 µM.
On to `Cc1nn(Cc2ccc(C[C@H]3OC(=O)[C@H](CC(C)C)N(C)C(=O)[C@@H](C)OC(=O)[C@H](CC(C)C)N(C)C(=O)[C@@H](Cc4ccc(Cn5cc(Br)c(C)n5)cc4)OC(=O)[C@H](CC(C)C)N(C)C(=O)[C@@H](C)OC(=O)[C@H](CC(C)C)N(C)C3=O)cc2)cc1Br` [Example 1b-43, (3S,6R,9S,12R,15S,18R,21S,24R)-6,18-bis(4-((4-bromo-3-methyl-1H-pyrazol-1-yl)methyl)benzyl)-3,9,15,21-tetraisobutyl-4,10,12,16,22,24-hexamethyl-1,7,13,19-tetraoxa-4,10,16,22-tetraazacyclotetracosan-2,5,8,11,14,17,20,23-octaone], for which the minimal effective concentration was in the range of 0.01 to 0.1 µM.
Regarding `CNC(=O)c1cnn(Cc2ccc(C[C@H]3OC(=O)[C@H](CC(C)C)N(C)C(=O)[C@@H](C)OC(=O)[C@H](CC(C)C)N(C)C(=O)[C@@H](Cc4ccc(Cn5cc(C(=O)NC)cn5)cc4)OC(=O)[C@H](CC(C)C)N(C)C(=O)[C@@H](C)OC(=O)[C@H](CC(C)C)N(C)C3=O)cc2)c1` [Example 1b-53, 1,1′-(((((2R,5S,8R,11 S,14R,17S,20R,23S)-5,11,17,23-tetraisobutyl-4,8,10,16,20,22-hexamethyl-3,6,9,12,15,18,21,24-octaoxo-1,7,13,19-tetraoxa-4,10,16,22-tetraazacyclotetracosane-2,14-diyl)bis(methylene))bis(4,1-phenylene))bis(methylene))bis(N-methyl-1H-pyrazole-4-carboxamide)], the minimal effective concentration is 0.01 to 0.1 µM.
Consider `CC(C)C[C@H]1C(=O)O[C@H](Cc2ccc(Cn3cc(S(=O)(=O)N4CCCC4)cn3)cc2)C(=O)N(C)[C@@H](CC(C)C)C(=O)O[C@H](C)C(=O)N(C)[C@@H](CC(C)C)C(=O)O[C@H](Cc2ccc(Cn3cc(S(=O)(=O)N4CCCC4)cn3)cc2)C(=O)N(C)[C@@H](CC(C)C)C(=O)O[C@H](C)C(=O)N1C` [Example 1b-54, (3S,6R,9S,12R,15S,18R,21S,24R)-3,9,15,21-tetraisobutyl-4,6,10,16,18,22-hexamethyl-12,24-bis(4-((4-(pyrrolidin-1-ylsulfonyl)-1H-pyrazol-1-yl)methyl)benzyl)-1,7,13,19-tetraoxa-4,10,16,22-tetraazacyclotetracosan-2,5,8,11,14,17,20,23-octaone], for which the minimal effective concentration lay in the range of 0.01 to 0.1 µM.
`CC(C)C[C@H]1C(=O)O[C@H](Cc2ccc(Cn3cc(C(F)F)cn3)cc2)C(=O)N(C)[C@@H](CC(C)C)C(=O)O[C@H](C)C(=O)N(C)[C@@H](CC(C)C)C(=O)O[C@H](Cc2ccc(Cn3cc(C(F)F)cn3)cc2)C(=O)N(C)[C@@H](CC(C)C)C(=O)O[C@H](C)C(=O)N1C` [Example 1b-62, (3S,6R,9S,12R,15S,18R,21S,24R)-6,18-bis(4-((4-(difluoromethyl)-1H-pyrazol-1-yl)methyl)benzyl)-3,9,15,21-tetraisobutyl-4,10,12,16,22,24-hexamethyl-1,7,13,19-tetraoxa-4,10,16,22-tetraazacyclotetracosan-2,5,8,11,14,17,20,23-octaone]: the minimal effective concentration lay within 0.001 to 0.01 µM.
Turning to `CC(C)C[C@H]1C(=O)O[C@H](Cc2ccc(Cn3ccc(Br)n3)cc2)C(=O)N(C)[C@@H](CC(C)C)C(=O)O[C@H](C)C(=O)N(C)[C@@H](CC(C)C)C(=O)O[C@H](Cc2ccc(Cn3ccc(Br)n3)cc2)C(=O)N(C)[C@@H](CC(C)C)C(=O)O[C@H](C)C(=O)N1C` [Example 1b-63, (3S,6R,9S,12R,15S,18R,21S,24R)-6,18-bis(4-((3-bromo-1H-pyrazol-1-yl)methyl)benzyl)-3,9,15,21-tetraisobutyl-4,10,12,16,22,24-hexamethyl-1,7,13,19-tetraoxa-4,10,16,22-tetraazacyclotetracosan-2,5,8,11,14,17,20,23-octaone], the minimal effective concentration fell in the range of 0.01 to 0.1 µM.
To `CC(C)C[C@H]1C(=O)O[C@H](Cc2ccc(Cn3ccc(I)n3)cc2)C(=O)N(C)[C@@H](CC(C)C)C(=O)O[C@H](C)C(=O)N(C)[C@@H](CC(C)C)C(=O)O[C@H](Cc2ccc(Cn3ccc(I)n3)cc2)C(=O)N(C)[C@@H](CC(C)C)C(=O)O[C@H](C)C(=O)N1C` [Example 1b-64, (3S,6R,9S,12R,15S,18R,21S,24R)-6,18-bis(4-((3-iodo-1H-pyrazol-1-yl)methyl)benzyl)-3,9,15,21-tetraisobutyl-4,10,12,16,22,24-hexamethyl-1,7,13,19-tetraoxa-4,10,16,22-tetraazacyclotetracosan-2,5,8,11,14,17,20,23-octaone] belongs 0.01 to 0.1 µM; to `CC(C)C[C@H]1C(=O)O[C@H](Cc2ccc(Cn3ccc(C4CC4)n3)cc2)C(=O)N(C)[C@@H](CC(C)C)C(=O)O[C@H](C)C(=O)N(C)[C@@H](CC(C)C)C(=O)O[C@H](Cc2ccc(Cn3ccc(C4CC4)n3)cc2)C(=O)N(C)[C@@H](CC(C)C)C(=O)O[C@H](C)C(=O)N1C` [Example 1b-67, (3S,6R,9S,12R,15S,18R,21S,24R)-6,18-bis(4-((3-cyclopropyl-1H-pyrazol-1-yl)methyl)benzyl)-3,9,15,21-tetraisobutyl-4,10,12,16,22,24-hexamethyl-1,7,13,19-tetraoxa-4,10,16,22-tetraazacyclotetracosan-2,5,8,11,14,17,20,23-octaone], 0.01 to 0.1 µM; to `CC(C)C[C@H]1C(=O)O[C@H](Cc2ccc(Cn3cc(-c4ccccn4)cn3)cc2)C(=O)N(C)[C@@H](CC(C)C)C(=O)O[C@H](C)C(=O)N(C)[C@@H](CC(C)C)C(=O)O[C@H](Cc2ccc(Cn3cc(-c4ccccn4)cn3)cc2)C(=O)N(C)[C@@H](CC(C)C)C(=O)O[C@H](C)C(=O)N1C` [Example 1b-71, (3S,6R,9S,12R,15S,18R,21S,24R)-3,9,15,21-tetraisobutyl-4,6,10,16,18,22-hexamethyl-12,24-bis(4-((4-(pyridin-2-yl)-1H-pyrazol-1-yl)methyl)benzyl)-1,7,13,19-tetraoxa-4,10,16,22-tetraazacyclotetracosan-2,5,8,11,14,17,20,23-octaone], 0.01 to 0.1 µM.
Regarding `CC(C)C[C@H]1C(=O)O[C@H](Cc2ccc(Cn3cc(CCO)cn3)cc2)C(=O)N(C)[C@@H](CC(C)C)C(=O)O[C@H](C)C(=O)N(C)[C@@H](CC(C)C)C(=O)O[C@H](Cc2ccc(Cn3cc(CCO)cn3)cc2)C(=O)N(C)[C@@H](CC(C)C)C(=O)O[C@H](C)C(=O)N1C` [Example 1b-75, (3S,6R,9S,12R,15S,18R,21S,24R)-6,18-bis(4-((4-(2-hydroxyethyl)-1H-pyrazol-1-yl)methyl)benzyl)-3,9,15,21-tetraisobutyl-4,10,12,16,22,24-hexamethyl-1,7,13,19-tetraoxa-4,10,16,22-tetraazacyclotetracosan-2,5,8,11,14,17,20,23-octaone], the minimal effective concentration was in the range of 0.01 to 0.1 µM.
Take `CC(C)C[C@H]1C(=O)O[C@H](Cc2ccc(Cn3cc(-c4cnccn4)cn3)cc2)C(=O)N(C)[C@@H](CC(C)C)C(=O)O[C@H](C)C(=O)N(C)[C@@H](CC(C)C)C(=O)O[C@H](Cc2ccc(Cn3cc(-c4cnccn4)cn3)cc2)C(=O)N(C)[C@@H](CC(C)C)C(=O)O[C@H](C)C(=O)N1C` [Example 1b-87, (3S,6R,9S,12R,15S,18R,21S,24R)-3,9,15,21-tetraisobutyl-4,6,10,16,18,22-hexamethyl-12,24-bis(4-((4-(pyrazin-2-yl)-1H-pyrazol-1-yl)methyl)benzyl)-1,7,13,19-tetraoxa-4,10,16,22-tetraazacyclotetracosan-2,5,8,11,14,17,20,23-octaone]: the minimal effective concentration is 0.01 to 0.1 µM.
As to `CC(C)C[C@H]1C(=O)O[C@H](Cc2ccc(Cn3ccc(CO)n3)cc2)C(=O)N(C)[C@@H](CC(C)C)C(=O)O[C@H](C)C(=O)N(C)[C@@H](CC(C)C)C(=O)O[C@H](Cc2ccc(Cn3ccc(CO)n3)cc2)C(=O)N(C)[C@@H](CC(C)C)C(=O)O[C@H](C)C(=O)N1C` [Example 1b-97, (3S,6R,9S,12R,15S,18R,21S,24R)-6,18-bis(4-((3-(hydroxymethyl)-1H-pyrazol-1-yl)methyl)benzyl)-3,9,15,21-tetraisobutyl-4,10,12,16,22,24-hexamethyl-1,7,13,19-tetraoxa-4,10,16,22-tetraazacyclotetracosan-2,5,8,11,14,17,20,23-octaone], the minimal effective concentration was in the range of 0.01 to 0.1 µM.
